{
  "source": "patent US8962010B2",
  "about": "“Intravaginal drug delivery devices for the delivery of macromolecules and water-soluble drugs” (Warner Chilcott Company, LLC, priority 2007, dated 2015)",
  "origin": "cited, not measured here",
  "details": "pH 5",
  "data": [
    {"compound": "CCN(Cc1cccc(S(=O)(=O)[O-])c1)c1ccc(C(=C2C=CC(=[N+](CC)Cc3cccc(S(=O)(=O)[O-])c3)C=C2)c2ccccc2S(=O)(=O)[O-])cc1.[Na+].[Na+]", "note": "[Erioglaucine]", "values": [
      {"measurement": "water solubility", "value": "more than 20 % w/w"}
    ]}
  ]
}
